Experimental findings from patent US5508424A, “4-arylisoindole analgesics” (Ortho Pharmaceutical Corporation, priority 1993, dated 1996) are described below.

One experiment has as its system Acetylcholine-Bromide Induced Abdominal Constriction. The experiment in a line: Mouse Acetylcholine Bromide-Induced Abdominal Constriction Assay. Conditions: Mus musculus, 0.5 h; @ 3 mpk/po; acetylcholine bromide 5.5 mg/kg i.p. 30 min after drug; % analgesia. The experiment is classed as in vivo. As to the method:
Mouse Acetylcholine Bromide-Induced Abdominal Constriction Assay
The mouse acetylcholine-induced abdominal constiction assay, as described by Collier et al. in Brit. J. Pharmacol. Chem. Ther., 32: 295-310, 1968, with minor modifications was used to assess analgesic potency of the compounds of formula (I). The test drugs or appropriate vehicle were administered orally (p.o.) and 30 minutes later the animal received an intraperitoneal (i.p.) injection of 5.5 mg/kg acetylcholine bromide (Matheson, Coleman and Bell, East Rutherford, N.J.). The mice were then placed in groups of three into glass bell jars and observed for a ten minute observation period for the occurrence of an abdominal constriction response (defined as a wave of constriction and elongation passing caudally along the abdominal wall, accompanied by a twisting of the trunk and followed by extension of the hind limbs). The percent inhibition of this response to a nociceptive stimulus (equated to % analgesia) was calculated as follows: The % Inhibition of response, i.e., % analgesia is equal to the difference between the No. of control animals response and the No. of drug-treated animals response times 100 divided by the No. of control animals responding.
At least 15 animals were used for control and in each of the drug treated groups. At least three doses were used to determine each dose response curve and ED50 (that dose which would produce 50% analgesia). The ED50 values and their 95% fiducial limits were determined by a computer assisted probit analysis.
As a reminder, the inhibition in vivo is the relative decrease from the control value, in per cent. A lower inhibition in vivo goes with little suppression. Molecule `CN1C[C@H]2CCC[C@H](c3ccc(C(F)(F)F)cc3)[C@@H]2C1` (relative stereo) [Cp-17] showed an inhibition in vivo at 3 mg/kg of 33%.

The same experiment, now with this note: Mus musculus, 0.5 h; @ 30 mpk/po; acetylcholine bromide 5.5 mg/kg i.p. 30 min after drug; % analgesia.
For the molecule `COc1cccc([C@@H]2CCC[C@H]3CN(C)C[C@H]32)c1` (relative stereo) [Cp-1], the inhibition in vivo at 30 mg/kg lay in the range of 30 to 40%.
In the case of `COc1cccc([C@@H]2CCC[C@@H]3CN(Cc4ccccc4)C[C@H]32)c1` (relative stereo) [Cp-6], testing at 30 mg/kg gave an inhibition in vivo of 13.3%.
The same measure, in the same setting: then `COc1cccc([C@@H]2CCC[C@H]3CN(C)C[C@H]32)c1OC` (relative stereo) [Cp-8], with 78.8%.
`FC(F)(F)c1ccc([C@H]2CCC[C@@H]3CN(CCC(c4ccccc4)c4ccccc4)C[C@H]32)cc1` (relative stereo) [Cp-22]: the inhibition in vivo at 30 mg/kg worked out at 13.3%.
The same measure, in the same setting: then `CN1C[C@@H]2CCC[C@@H](c3ccc(Br)cc3)[C@@H]2C1` (relative stereo) [Cp-34], with 100%; and `CN1C[C@@H]2CCC[C@H](c3ccc(Cl)c(Cl)c3)[C@@H]2C1` (relative stereo) [Cp-46], with 100%.
`CCCCN1CC2CCCC(c3cccc(C(F)(F)F)c3)C2C1` (stereo not shown) [Cp-18]: the inhibition in vivo at 30 mg/kg amounted to 66.7%.

The same experiment, now with this note: Mus musculus; po; dose producing 50% analgesia, probit analysis; read-out: ED50.
For the molecule `CN1C[C@H]2CCC[C@@H](c3cccc(C(F)(F)F)c3)[C@@H]2C1` (relative stereo) [Cp-7, 3aα, 4α,7aβ-Octahydro-2-methyl-4-(3-trifluoromethylphenyl)-1H-isoindole Monofumarate], the ED50 was 7.46 mg/kg.
In the case of `CN1C[C@H]2CCC[C@@H](c3ccccc3)[C@@H]2C1` (relative stereo) [Cp-13], the ED50 was 8.35 mg/kg.
Still for that read-out and setting: then `CN1C[C@H]2CCC[C@H](c3ccc(Cl)c(Cl)c3)[C@@H]2C1` (relative stereo) [Cp-14], with 2.8 mg/kg; and `CN1C[C@H]2CCC[C@@H](c3ccc(Cl)c(Cl)c3)[C@@H]2C1` (relative stereo) [Cp-15], with 7 mg/kg.
With `CN1C[C@H]2CCC[C@@H](c3ccc(C(F)(F)F)cc3)[C@@H]2C1` (relative stereo) [Cp-16], the ED50 stood at 4.6 mg/kg.
Still for that read-out and setting: then `Cc1cccc([C@@H]2CCC[C@@H]3CN(C)C[C@H]32)c1` (relative stereo) [Cp-24, 3aα,7aβ Octahydro-2-methyl-4α-(3-methylphenyl)-1H-isoindole Monofumarate], with 23.6 mg/kg.
`Clc1ccc([C@H]2CCC[C@H]3CNC[C@H]32)cc1Cl` (relative stereo) [Cp-35, 4β-(3,4-dichlorophenyl)-3aα,7aα-octahydro-1H-isoindole]: the ED50 came out at 9.63 mg/kg.
On the same count and under the same terms, then `CN1C[C@@H]2CCC[C@H](c3ccccc3)[C@@H]2C1` (relative stereo) [Cp-43], with 4.9 mg/kg; and `CN1C[C@@H]2CCC[C@H](c3ccc(Br)cc3)[C@@H]2C1` (relative stereo) [Cp-44, 4β-bromophenyl-2-methyl-3aα,7aα-octahydro-1H-isoindole], with 9.15 mg/kg.

The experiment is the same for the next values; noted with them: po; dose producing 50% analgesia, probit analysis.
In turn, `Cc1cccc(C2CCCC3CN(C)CC32)c1.O=C(O)/C=C/C(=O)O` (single isomer, unassigned; (-)) [Cp-24-, (-)3aα,7aβ Octahydro-2-methyl-4α-(3-methylphenyl)-1H-isoindole Monofumarate] yielded an ED50 of 24.9 mpk.
The same measure, in the same setting: then `Cc1cccc([C@@H]2CCC[C@@H]3CN(C)C[C@@H]32)c1.O=C(O)/C=C/C(=O)O` [Cp-24+, (+)3aα,4α,7aβ Octahydro-2-methyl-4-(3-methylphenyl)-1H-isoindole Monofumarate], with 21.6 mpk.
